Laboratory results taken from patent publication US9932300B2, “N,N′-diarylurea compounds and N,N′-diarylthiourea compounds as inhibitors of translation initiation” (President and Fellows of Harvard College, priority 2009, dated 2018).
Several values for one entry are separate records, joined by “and”; a condition that tells them apart may be missing. Equal values may be shown once.

System: eIF2-GTP-Met-tRNAi ternary complex
Assay: Ternary complex assay (dual luciferase, firefly/renilla ratio) in stable KLN-tTA/pBISA-DL(ATF-4) cells; HTS and hit confirmation
Type: cell-based, mouse
Parameters: Activity 10 uM / Activity 2.5 uM / Activity 5 uM: unit not given here
Details: confirmed hits of the screen (Table 5); for Activity 5 uM: compound at 5 uM; for Activity 10 uM: compound at 10 uM; for Activity 2.5 uM: compound at 2.5 uM

For `Cc1ccc2nc(-c3ccccc3)c(N=O)n2c1` [Compound 369061], the “Activity 5 uM” value was 5.137 and the “Activity 10 uM” value was 6.3.

`O=C(Nc1nc2ccc(Cl)cc2[nH]1)c1ccccc1O` [Compound 369110] was tested, and the “Activity 2.5 uM” value was 1.84 and the “Activity 10 uM” value was 6.46.

In the case of `CC(=Nc1ccc(Cl)cc1N)c1c(O)cc(C)oc1=O` [Compound 369331], the “Activity 5 uM” value was 2.533 and the “Activity 10 uM” value was 2.7605.

In the case of `CN(C(=[Se])[Se]C(=[Se])N(C)C1CCCCC1)C1CCCCC1` [Compound 369741], the “Activity 2.5 uM” value was 0.96 and the “Activity 10 uM” value was 6.34.

In the case of `c1csc(-c2[nH]nc3c2CCc2ccccc2-3)c1` [Compound 370463], the “Activity 2.5 uM” value was 4.76 and the “Activity 10 uM” value was 5.98.

`Cn1c2ccccc2c2nnc(N/N=C/c3ccccn3)nc21` [Compound 370589] was tested, and the “Activity 2.5 uM” value was 11.87 and the “Activity 10 uM” value was 39.54.

With `Cc1ccc2c(O)c3c(cc2c1O)C(=O)c1ccccc1C3=O` [Compound 374924] the “Activity 2.5 uM” value was 2.1 and the “Activity 10 uM” value was 6.35.

`C/C(=N\NC(=S)N1CCN(C2CCCCCC2)CC1)c1ccccn1` [Compound 376265] was tested, and the “Activity 2.5 uM” value was 2.72 and the “Activity 10 uM” value was 7.26.

`O=C(O)Cc1ccc(O)c(O)c1.[Pt].c1ccc([PH+](c2ccccc2)c2ccccc2)cc1.c1ccc([PH+](c2ccccc2)c2ccccc2)cc1` [Compound 377376] was tested, and the “Activity 2.5 uM” value was 0.96 and the “Activity 10 uM” value was 5.14.

In the case of `CNCC(O)c1ccc(O)c(O)c1.[Pt].c1ccc([PH+](c2ccccc2)c2ccccc2)cc1.c1ccc([PH+](c2ccccc2)c2ccccc2)cc1` [Compound 377377], the “Activity 2.5 uM” value was 0.77 and the “Activity 10 uM” value was 34.93.

In the case of `CC(C)NCC(O)c1ccc(O)c(O)c1.[Pt].c1ccc([PH+](c2ccccc2)c2ccccc2)cc1.c1ccc([PH+](c2ccccc2)c2ccccc2)cc1` [Compound 377378], the “Activity 2.5 uM” value was 0.87 and the “Activity 10 uM” value was 21.49.

With `Nc1ccccc1-c1nnc(-c2ccccc2)o1` [Compound 377831] the “Activity 2.5 uM” value was 2.19 and the “Activity 10 uM” value was 3.79.

With `COc1cc2c(cc1C[N+](C)(C)CSc1ccccc1)-c1ccccc1CC2.[Br-]` [Compound 378135] the “Activity 2.5 uM” value was 1.75 and the “Activity 10 uM” value was 3.15.

In the case of `Nc1ccccc1Nc1c([N+](=O)[O-])cc(C(F)(F)F)cc1[N+](=O)[O-]` [Compound 379578], the “Activity 2.5 uM” value was 0.61 and the “Activity 10 uM” value was 27.15.

In the case of `CC1(C)CN=C(NN=C(C=Cc2ccc(C(F)(F)F)cc2)C=Cc2ccc(C(F)(F)F)cc2)NC1` [Compound 379665], the “Activity 2.5 uM” value was 1.08 and the “Activity 10 uM” value was 35.03.

`COC(=O)C1=C(C(=O)OC)C2(C)OC1c1ccccc12` (stereo not drawn) [Compound 380207] was tested, and the “Activity 2.5 uM” value was 0.47 and 0.3615.

In the case of `c1ccc(-c2noc(-c3ccccc3)n2)cc1` [Compound 400077], the “Activity 2.5 uM” value was 2.04 and the “Activity 10 uM” value was 3.14.

With `CN(C)c1ccc(N=C2C=CC(=O)C=C2)cc1` [Compound 400538] the “Activity 2.5 uM” value was 0.57 and the “Activity 10 uM” value was 6.8.

For `Cc1cc(N=Nc2ccccc2C)c(N)cc1N` [Compound 400939], the “Activity 2.5 uM” value was 2.36 and the “Activity 10 uM” value was 3.56.

With `CC1=CC(=Nc2ccc(N(C)C)cc2)C=CC1=O` [Compound 401162] the “Activity 2.5 uM” value was 0.3784 and the “Activity 10 uM” value was 7.084.

In the case of `c1ccc2c(O[Si](Oc3cccc4ccccc34)(Oc3cccc4ccccc34)Oc3cccc4ccccc34)cccc2c1` [Compound 401234], the “Activity 2.5 uM” value was 1 and the “Activity 10 uM” value was 24.65.

In the case of `CCCCCCNc1nc(N2CCOCC2)c2[nH]c(NCCCCCC)nc2n1` [Compound 401304], the “Activity 2.5 uM” value was 1.04 and the “Activity 10 uM” value was 43.11.

With `Oc1c(Cl)cc(Cl)cc1Cc1cc(Cl)cc(Cl)c1O` [Compound 402193] the “Activity 2.5 uM” value was 0.56 and the “Activity 10 uM” value was 3.19.

`Br.CCCCCCCCCCCCNCCCc1ccccc1` [Compound 402291] was tested, and the “Activity 2.5 uM” value was 0.73 and the “Activity 10 uM” value was 4.43.

`Oc1ccc(N=Nc2ccc(Cl)cc2)cc1` [Compound 402592] was tested, and the “Activity 2.5 uM” value was 2.25 and the “Activity 10 uM” value was 3.48.

In the case of `O=C(Nc1ccccc1)c1cc(Cl)ccc1O` [Compound 402600], the “Activity 2.5 uM” value was 1.14 and the “Activity 10 uM” value was 4.82.
